Assays:
[1] = test system: HMEC-1 cells treated with CXCR3 siRNA; experiment: Tube formation in CXCR3 siRNA-treated cells; type: cell-based, human; conditions: CXCR3 knockdown; concentrations as in Experiment 3
Procedure: In the various experiments detailed below, unless otherwise noted, siRNA down regulation of CXCR3 was accomplished according to the following procedure. HMEC-1 cells were plated at 5.5×10^5 cells/60 mm dish and incubated overnight. The cells were 90-95% confluent. Cells were transfected with 4 μM siRNA (2 μM Sigma, 2 μM Santa Cruz) using Dharamacon #4 transfection reagent. The cells were incubated for 24 hours, and then placed in EGM-2MV media for 48 hours. The cells were then transfected again as indicated above. After 48 hours of incubation in EGM-2MV media the cells were then used for experimentation.
In the various experiments described below, to the extent not otherwise noted, CXCR3 siRNA transfection was preformed according to the procedure as previously described by Koh et al. (“Methods in Enzymology,” 2008, vol 443, p. 84), and summarized briefly as follows. HMEC-1 cells were plated in 6 well tissue culture plate at 4.0×10^5 cells/well in complete MCDB131 media and incubated overnight. The cells were ˜75% confluent. The media was removed and replaced with serum free Opti-Mem and incubated for 30 minutes. Dharmafect #4 was added to Opti-Mem to a final concentration of 2.5% (final volume […]) then incubated for 5 minutes at room temp. In parallel, CXCR3 siRNA was diluted in Opti-Mem to a final concentration of […] then incubated for 5 minutes at room temp. […]

HMEC-1 cells = experiment: Tube dissociation assay on GFR-Matrigel; type: cell-based, human; conditions: IP-10dp 10 μM
Procedure: For this tube dissociation assay, HMEC-1 cells were first re-suspended in 1% FBS MCDB131 media containing VEGF (75 ng/ml) and incubated on GFR-Matrigel for 24 hrs at 37° C. to allow tube formation (the average result reflected labeled “24 VEGF . . . ” in FIG. 5B). The media was removed and replaced with combinations of VEGF (75 ng/ml), IP-10 (300 ng/ml), or IP-10dp (10 μM) then incubated for another 24 hours. After 48 hours, tubes were still present in the controls treated only with VEGF (labeled 48 hr VEGF in FIG. 5B).
The cells cultures were imaged to assess tube formation using similar procedures to that described above for Experiment 3. […]
Again, quantification of the endothelial tube area for the various cell cultures was determined using MetaMorph, and the data reported in the graph are of at least N=6 and normalized to no treatment (average±SEM), with *P<0.05.

[2] = test system: cAMP production in HMEC-1 cells; experiment: cAMP enzyme immunoassay in endothelial cells; type: cell-based, human
Procedure: Thus, an experiment was conducted to determine if stimulation of endothelial cells with IP-10dp would induce an increase in cAMP. HMEC-1 cells were plated in 10 mm culture dishes and grown to confluency in complete growth media. The cells were then incubated in serum-reduced media (0.5% dialyzed FBS for HMEC-1 cells) for 24 hours at 37° C. The cells were then washed once with PBS and incubated in serum-free media. The cells were then stimulated with forskolin ([…]), VEGF (100 ng/ml), IP-10 (200 ng/ml), IP-10dp (10 μM) alone or in various combinations. The media was removed and ice cold 80% ethanol was added and the cells incubated on ice for 15 minutes. The extracts were evaluated and quantified for total cAMP production by using a cAMP enzyme immunoassay kit provided by Sigma-Aldrich Corp., of St. Louis, Mo., according to the manufacturer's protocol.

[3] = test system: VEGF-induced new vessel formation; experiment: In vivo Matrigel plug assay, vessel development; parameters: species or system C57Bl/6 mice; conditions: mice, day 10
Procedure: To determine whether IP-10dp is able to inhibit vessel growth, an in vivo Matrigel assay was used to establish that IP-10dp is able to inhibit angiogenesis. Vessel development and regression in vivo was determined generally according to the method previously described by Bodnar et al. (see Bodnar et al., 2006, supra). In brief, for vessel development GFR Matrigel supplemented with VEGF165 in the absence or presence of IP-10 or IP-10dp was injected into the groin area of the mice. Ten days post inoculation; the Matrigel plug was removed and stained with Masson Trichrome to visualize endothelial infiltration.
Specifically, Matrigel with VEGF was injected into the groin area near the dorsal midline of 12-month-old C57Bl/6 female mice. In addition to Matrigel plus VEGF, the mice were injected with saline (control), 10 μg of IP-10 or 100 μg of IP-10dp. Two injections were made in each mouse in separate dorsal areas, one control injection and the other with the designated experimental treatment. On day 10, the Matrigel plugs were removed and either paraffin embedded or flash frozen. They were prepared and examined histologically for new vessel development using Masson's trichrome staining. […] This particular result is taken as being indicative that IP-10dp has the ability to inhibit VEGF-induced new vessel formation.

## PESKAIKNLLKAVSKEMSKRSP (IP-10dp; listed as Homo sapiens) [synthetic fragment of IP-10 comprising residues 78-98, the C-terminal α-helical domain]
[1]
  formation of tubes in CXCR3 siRNA-treated cells: did not show a significant difference
HMEC-1 cells; 24-48 hrs
  endothelial cords following treatment: significant decrease in endothelial cords
HMEC-1 cells; treatment 24-48 hrs, presence and absence of VEGF, IP-10 300 ng/ml
  dissociation of newly formed tubes: induce dissociation of newly formed tubes
[2]; IP-10dp 10 μM
  increase in cAMP production compared to control and VEGF treated cells: 2-3 fold
[2]; VEGF 100 ng/ml plus IP-10dp 10 μM
  cAMP production with VEGF plus IP-10dp compared to VEGF alone: significant increase in cAMP production
[3]; 10 μg IP-10 or 100 μg IP-10dp with Matrigel plus VEGF, Masson's trichrome
  inhibition of VEGF-induced angiogenesis in Matrigel plug: inhibited this angiogenesis
[3]; 100 μg IP-10dp vs 10 μg IP-10
  inhibition of VEGF-induced new vessel formation compared with IP-10: more effective than IP-10
